The target in this assay is T1, recombinant human GR (Homo sapiens, UniProt P04150).
T1 construct: purchased Panvera/Invitrogen P2812 (kit P2893)
T1 sequence (P04150 1-777): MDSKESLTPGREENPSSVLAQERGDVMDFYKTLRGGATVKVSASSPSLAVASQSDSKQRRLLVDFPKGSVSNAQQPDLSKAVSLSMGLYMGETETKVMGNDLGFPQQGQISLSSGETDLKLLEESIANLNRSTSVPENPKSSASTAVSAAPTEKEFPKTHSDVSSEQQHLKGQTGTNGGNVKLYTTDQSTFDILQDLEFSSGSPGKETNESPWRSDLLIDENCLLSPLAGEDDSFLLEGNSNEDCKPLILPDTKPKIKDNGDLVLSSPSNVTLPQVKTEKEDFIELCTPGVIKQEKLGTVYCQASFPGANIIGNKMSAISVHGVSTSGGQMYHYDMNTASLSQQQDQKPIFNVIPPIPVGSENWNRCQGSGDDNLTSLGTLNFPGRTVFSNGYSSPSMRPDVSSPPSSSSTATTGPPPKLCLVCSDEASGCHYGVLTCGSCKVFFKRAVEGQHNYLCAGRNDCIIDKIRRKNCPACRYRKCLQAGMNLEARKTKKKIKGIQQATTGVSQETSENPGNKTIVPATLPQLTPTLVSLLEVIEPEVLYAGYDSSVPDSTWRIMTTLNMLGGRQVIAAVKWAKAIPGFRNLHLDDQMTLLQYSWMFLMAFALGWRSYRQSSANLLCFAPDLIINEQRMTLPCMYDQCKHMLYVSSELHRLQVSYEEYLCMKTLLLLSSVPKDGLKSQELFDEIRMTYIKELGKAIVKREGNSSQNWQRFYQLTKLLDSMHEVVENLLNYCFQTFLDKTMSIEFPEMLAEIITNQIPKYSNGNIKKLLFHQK
As to the kind of experiment: Human Glucocorticoid Receptor (GR) Assay, fluorescence polarization competition with GS Red tracer. To be noted: 2 hours at room temperature, 100% control 10 μM Dexamethasone, XLfit model 205, read-out: Inhibition of GR binding, IC50. Here is the method:
Human Glucocorticoid Receptor (GR) Assay The assay is based on a commercial kit from Panvera/Invitrogen (Part number P2893). The assay technology is fluorescence polarization. The kit utilises recombinant human GR (Panvera, Part number P2812), a Fluoromone™ labelled tracer (GS Red, Panvera, Part number P2894) and a Stabilizing Peptide 10X (Panvera, Part number P2815). The GR and Stabilizing Peptide reagents are stored at −70° C. while the GS Red is stored at −20° C. Also included in the kit are 1M DTT (Panvera, Part number P2325, stored at −20° C.) and GR Screening buffer 10X (Panvera, Part number P2814, stored at −70° C. initially but once thawed stored at room temperature). Avoid repeated freeze/thaws for all reagents. The GR Screening buffer 10X comprises 100 mM potassium phosphate, 200 mM sodium molybdate, 1 mM EDTA and 20% DMSO. Test compounds (1 μL) and controls (1 μL) in 100% DMSO were added to black polystyrene 384-well plates (Greiner low volume black flat-bottom, part number 784076). 0% control was 100% DMSO and 100% control was 10 μM Dexamethasone. Background solution (8 μL; assay buffer 10X, Stabilizing Peptide, DTT and ice cold MQ water) was added to the background wells. GS Red solution (7 μL; assay buffer 10X, Stabilizing Peptide, DTT, GS Red and ice cold water) was added to all wells except background wells. GR solution (7 μL; assay buffer 10X, Stabilizing Peptide, DTT, GR and ice cold water) was added to all wells. The plate was sealed and incubated in a dark at room temperature for 2 hours. The plate was read in an Analyst plate reader (LJL Biosystems/Molecular Devices Corporation) or other similar plate reader capable of recording fluorescence polarization (excitation wavelength 530 nm, emission wavelength 590 nm and a dichroic mirror at 561 nm).
(In general: Polarisation of emitted light reports the rotation of a fluorescent probe.)

The source of these data is US20100256104A1, “NOVEL AMIDE COMPOUNDS” (ASTRAZENECA R&D, priority 2009, published 2010).

For `CCC(=O)O[C@]1(C(=O)SCF)CC[C@H]2[C@@H]3CCC4=Cc5c(cnn5-c5cccc(C(=O)NC)c5)C[C@]4(C)[C@@]3(F)[C@@H](O)C[C@@]21C` [Example 33, (1R,3aS,3bS,10aS, 10bR,11S,12aS)-10b-fluoro-1-{[(fluoromethyl)sulfanyl]carbonyl}-11-hydroxy-10a,12a-dimethyl-7[3-(methylcarbamoyl)phenyl]-1,2,3,3a,3b,4,5,7,10, 10a,10b,11,12,12a-tetradecahydrocyclo-penta[5,6]naphtho [1,2-f]indazol-1-yl propanoate], the IC50 stood at 5.2 nM.
The figure for `CSCCNC(=O)c1cccc(-n2ncc3c2C=C2CC[C@@H]4[C@H]([C@@H](O)C[C@@]5(C)[C@H]4CC[C@]5(OC(=O)C4CC4)C(=O)SCC#N)[C@@]2(C)C3)c1` [Example 9, (1R,3aS,3bS,10aR,10bS,11S,12aS)-1-{[(Cyanomethyl)sulfanyl]carbonyl}-11-hydroxy-10a,12a-dimethyl-7-(3-{[2-(methylsulfanyl)ethyl]carbamoyl}phenyl)-1,2,3,3a,3b,4,5,7,10,10a,10b,11,12,12a-tetradecahydrocyclopenta[5,6]naphtho[1,2-f]indazol-1-yl cyclopropanecarboxylate] is 0.91 nM; for `COCC(=O)O[C@]1(C(=O)SCF)CC[C@H]2[C@@H]3CCC4=Cc5c(cnn5-c5cccc(C(=O)NCCSC)c5)C[C@]4(C)[C@H]3[C@@H](O)C[C@@]21C` [Example 8, (1R,3aS,3bS,10aR,10bS,11S,12aS)-1-{[(Fluoromethyl)sulfanyl]carbonyl}-11-hydroxy-10a,12a-dimethyl-7-(3-{[2-(methylsulfanyl)ethyl]carbamoyl}phenyl)-1,2,3,3a,3b,4,5,7,10,10a,10b,11,12,12a-tetradecahydrocyclopenta[5,6]naphtho[1,2-f]indazol-1-yl methoxyacetate] it is 1.8 nM; for `CCC(=O)O[C@]1(C(=O)SCF)CC[C@H]2[C@@H]3CCC4=Cc5c(cnn5-c5cccc(C(=O)NCC(=O)NC)c5)C[C@]4(C)[C@@]3(F)[C@@H](O)C[C@@]21C` [Example 36, (1R,3aS,3bS,10aS, 10bR,11S,12aS)-10b-fluoro-1-{[(fluoromethyl)sulfanyl]carbonyl}-11-hydroxy-10a,12a-dimethyl-7-(3-{[2-(methylamino)-2-oxoethyl]carbamoyl}phenyl)-1,2,3,3a,3b,4,5,7,10,10a, 10b,11,12,12a-tetradecahydrocyclo-penta[5,6]naphtho [1,2-f]indazol-1-yl propanoate] it is 0.84 nM.
The figure for `COCC(=O)O[C@]1(C(=O)SCF)CC[C@H]2[C@@H]3C[C@H](C)C4=Cc5c(cnn5-c5cccc(C(=O)NCC(N)=O)c5)C[C@]4(C)[C@H]3[C@@H](O)C[C@@]21C` [Example 38, (1R,3aS,3bS,5S, 10aR,10bS,11S,12aS)-7-{3-[(2-amino-2-oxoethyl)carbamoyl]phenyl}-1-{[(fluoromethyl)sulfanyl]carbonyl}-11-hydroxy-5,10a, 12a-trimethyl-1,2,3,3a,3b,4,5,7,10, 10a,10b,11,12,12a-tetradecahydrocyclo-penta[5,6]naphtho [1,2-f]indazol-1-yl methoxyacetate] is 8.3 nM; for `C[C@]12Cc3cnn(-c4cccc(C(=O)N5CCC[C@@H]5C(N)=O)c4)c3C=C1CC[C@H]1[C@@H]3CC[C@](OC(=O)C4CC4)(C(=O)SCC#N)[C@@]3(C)C[C@H](O)[C@@]12F` [Example 54, (1R,3aS,3bS,10aS, 10bR,11S,12aS)-7-(3-{[(2R)-2-carbamoyl-pyrrolidin-1-yl]carbonyl}phenyl)-1-{[(cyanomethyl)sulfanyl]carbonyl}-10b-fluoro-11-hydroxy-10a,12a-dimethyl-1,2,3,3a, 3b,4,5,7,10,10a,- 10b,11,12,12a-tetradeca-hydrocyclo-penta[5,6]naphtho [1,2-f]indazol-1-yl cyclopropanecarboxylate] it is 4.2 nM; for `CCC(=O)O[C@]1(C(=O)SCF)[C@H](C)C[C@H]2[C@@H]3CCC4=Cc5c(cnn5-c5cccc(C(=O)N[C@H](C)C(N)=O)c5)C[C@]4(C)[C@@]3(F)[C@@H](O)C[C@@]21C` [Example 26, (1R,2R,3aS,3bS, 10aS,10bR,11S,12aS)-7-(3-{[(1R)-2-amino-1-methyl-2-oxoethyl]carbamoyl}phenyl)-10b-fluoro-1-{[(fluoromethyl)-sulfanyl]carbonyl}-11-hydroxy-2,10a,12a-trimethyl-1,2,3,3a,3b,4,5,7,10, 10a,10b,11,12,12a-tetradecahydrocyclo-penta[5,6]naphtho [1,2-f]indazol-1-yl propanoate] it is 2 nM.
In the case of `CCC(=O)O[C@]1(C(=O)SCF)CC[C@H]2[C@@H]3C[C@H](C)C4=Cc5c(cnn5-c5cccc(C(=O)N[C@@H](C)C(N)=O)c5)C[C@]4(C)[C@H]3[C@@H](O)C[C@@]21C` [Example 23, (1R,3aS,3bS,5S, 10aR,10bS,11S,12aS)-7-(3-{[(1S)-2-amino-1-methyl-2-oxoethyl]carbamoyl}phenyl)-1-{[(fluoromethyl)sulfanyl]carbonyl}-11-hydroxy-5,10a,12a-trimethyl-1,2,3,3a,3b,4,5,7,10, 10a,10b,11,12,12a-tetradecahydrocyclo-penta[5,6]naphtho [1,2-f]indazol-1-yl propanoate], the IC50 is 4 nM.
Take `COCC(=O)O[C@]1(C(=O)SCF)CC[C@H]2[C@@H]3CCC4=Cc5c(cnn5-c5cccc(C(=O)N[C@@H]6CCOC6)c5)C[C@]4(C)[C@H]3[C@@H](O)C[C@@]21C` [Example 40, (1R,3aS,3bS,10aR, 10bS,11S,12aS)-1-{[(fluoromethyl)sulfanyl]carbonyl}-11-hydroxy-10a,12a-dimethyl-7-{3-[(3R)-tetrahydrofuran-3-ylcarbamoyl]phenyl}-1,2,3,3a,3b,4,5,7,10, 10a,10b,11,12,12a-tetradecahydrocyclo-penta[5,6]naphtho [1,2-f]indazol-1-yl methoxyacetate]: the IC50 stood at 3 nM.
As for `CCC(=O)O[C@]1(C(=O)SCF)[C@H](C)C[C@H]2[C@@H]3CCC4=Cc5c(cnn5-c5cccc(C(=O)NCc6cccnc6)c5)C[C@]4(C)[C@@]3(F)[C@@H](O)C[C@@]21C` [Example 43, (1R,2R,3aS,3bS, 10aS,10bR,11S,12aS)-10b-fluoro-1-{[(fluoromethyl)sulfanyl]carbonyl}-11-hydroxy-2,10a,12a-trimethyl-7-{3-[(pyridin-3-ylmethyl)carbamoyl]phenyl}-1,2,3,3a,3b,4,5,7,10, 10a,10b,11,12,12a-tetradecahydrocyclo-penta[5,6]naphtho [1,2-f]indazol-1-yl propanoate], the figure is 1.9 nM; as for `CCC(=O)O[C@]1(C(=O)SCF)CC[C@H]2[C@@H]3C[C@H](C)C4=Cc5c(cnn5-c5cccc(C(=O)NCC(N)=O)c5)C[C@]4(C)[C@H]3[C@@H](O)C[C@@]21C` [Example 37, (1R,3aS,3bS,5S,10aR, 10bS,11S,12aS)-7-{3-[(2-amino-2-oxoethyl)carbamoyl]phenyl}-1-{[(fluoromethyl)sulfanyl]carbonyl}-11-hydroxy-5,10a, 12a-trimethyl-1,2,3,3a,3b,4,5,7,10, 10a,10b,11,12,12a-tetradecahydrocyclo-penta[5,6]naphtho [1,2-f]indazol-1-yl propanoate], 7.1 nM.

The term IC50 denotes the point on the concentration scale where inhibition reaches its midpoint.
